Experimental data: patent publication US6656911B2, “Serine protease inhibitors” (Cortech, Inc., priority 1994, dated 2003)

What was measured:
[1] = molecular target: T1, human neutrophil elastase (HNE) (Homo sapiens, UniProt P08246); assay: HNE Ki of CE compounds, tested as described in WO 96/16080; assay type: biochemical; conditions: read-out: HNE Ki
T1 sequence (P08246 30-267): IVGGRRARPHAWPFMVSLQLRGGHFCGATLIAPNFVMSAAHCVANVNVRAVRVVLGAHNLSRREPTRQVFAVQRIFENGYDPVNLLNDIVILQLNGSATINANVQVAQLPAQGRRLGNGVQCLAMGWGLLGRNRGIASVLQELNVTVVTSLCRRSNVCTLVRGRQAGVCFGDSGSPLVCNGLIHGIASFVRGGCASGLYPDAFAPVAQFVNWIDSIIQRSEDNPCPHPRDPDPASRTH

[2] = Blood level screening after oral dose; assay type: in vivo, Sprague-Dawley rats; conditions: rat, oral gavage 10 mg/kg; for concentration at 3 h / concentration at 1 h: male, Sprague-Dawley, plasma; for concentration at 3 h: read-out: Plasma Levels (μM) 3 hr; for concentration at 1 h: read-out: Plasma Levels (μM) 1 hr
Procedure: The inhibitors were dissolved or suspended in polyethylene glycol (PEG), PEG-400 or PEG:H2O:EtOH at a concentration of 10 mg/ml. Unfasted male Sprague-Dawley rats were given an oral dose of this solution by gavage. Rats received 10 mg inhibitor/kg body weight in a volume of 1 ml/kg. After 1,3 or 6 hr., the rats were killed with an overdose of urethane (2.5 g/kg; i.p.) and the blood collected in a heparinized tube via cardiac puncture. Red blood cells were separated from the plasma by centrifugation.
Depending on the inhibitor, one of four organics (ethyl acetate, toluene, isopropyl ether or methyl t-butyl ether) was used to extract the compound from the plasma. Inhibitor concentrations were measured by HPLC or LC/MS analysis.

Ki [1] [nM] | concentration at 3 h [2] [µM] | Compound | other results
40 | – | Cc1cccc(Cc2nnc(C(=O)C(NC(=O)Cn3c(=O)c(N)cc4ccccc43)C(C)C)o2)c1 (racemic) [CE2228, 3-(R,S)-Amino-quinolin-2-one-N-[1-(2-[5-(3-methylbenzyl)-1,3,4-oxadiazolyl]carbonyl)-2-(R,S)-methylpropyl]acetamide] | Plasma Levels (μM) 1 hr ([2]; 1 hr): 0.714 µM; Plasma Levels (μM) 3 hr [2]: 1.393 µM; Plasma Levels (μM) 6 hr ([2]; 6 hr): 0.409 µM
– | 0.002 | Cc1cccc(Cc2nc(C(=O)[C@@H](NC(=O)[C@@H]3CCCN3C(=O)[C@@H](NC(=O)OCc3ccccc3)C(C)C)C(C)C)no2)c1 [CE2055, (Benzyloxycarbonyl)-L-valyl-N-[1-(3-[5-(3-methylbenzyl)-1,2,4-oxadiazolyl]carbonyl)-2-(S)-methylpropyl]-L-prolinamide] | –
66 | 0.755 | Cc1cccc(Cc2nnc(C(=O)C(NC(=O)CN3C(=O)CCc4ccccc43)C(C)C)o2)c1 (stereo not drawn) [CE2088, 3,4-Dihydro-quinoline-2-one-N-[1-(2-[5-(3-methylbenzyl)-1,3,4-oxadiazolyl]carbonyl)-2-N-methylpropyl]acetamide] | concentration at 1 h ([2]; 1 hr): 0.801 µM
1.9 | 0.042 | CC(=O)N1CC(=O)N(CC(=O)N[C@H](C(=O)c2nnc(Cc3cccc(C)c3)o2)C(C)C)C(=Cc2ccccc2)C1=O [CE2099, 1-Acetyl-3-benzylidene piperazine-2,5-dione-N-[1-(2-[5-(3-methylbenzyl)-1,3,4-oxadiazolyl]carbonyl)-2-(S)-methylpropyl]acetamide] | –
20 | 0.69 | CC(=O)N1CC(=O)N(CC(=O)N[C@H](C(=O)c2nnc(Cc3cccc(C)c3)o2)C(C)C)C(=Cc2ccc(N(C)C)cc2)C1=O [CE2111, 1-Acetyl-3-(4-dimethylaminobenzylidene) piperazine-2,5-dione-N-[1-(2-[5-(3-methylbenzyl)-1,3,4-oxadiazolyl]carbonyl)-2-(S)-methylpropyl]acetamide] | –
39 | 0.909 | Cc1cccc(Cc2nnc(C(=O)[C@@H](NC(=O)Cn3c(=O)c(N)cc4ccccc43)C(C)C)o2)c1 [CE2113, 3-(Amino-quinoline-2-one)-N[1-(2-[5-(3-methylbenzyl)-1,3,4-oxadiazolyl]carbonyl)-2-(S)-methylpropyl]acetamide] | concentration at 1 h ([2]; 1 hr): 1.83 µM
0.4 | 0.011 | CC(C)[C@H](NC(=O)[C@@H]1Cc2ccccc2N1C(=O)[C@@H](NC(=O)OCc1ccccc1)C(C)C)C(=O)c1noc(Cc2cccc(C(F)(F)F)c2)n1 [CE2125, (Benzyloxycarbonyl)-L-valyl-2-L-(2,3-dihydro-1H-indole)-N-[1-(3-[5-(3-trifluoromethylbenzyl)-1,2,4-oxadiazolyl]carbonyl)-2-(S)-methylpropyl]amide] | –
64 | – | CC(C)[C@H](NC(=O)CN1C(=O)N[C@H](Cc2ccccc2)C1=O)C(=O)c1noc(Cc2cccc(C(F)(F)F)c2)n1 [CE2141, 5-(R)-Benzyl-2,4-imidazolidinedione-N-[1-(3-[5-(3-trifluoromethylbenzyl)-1,2,4-oxadiazolyl]carbonyl)-2-(S)-methylpropyl]acetamide] | Plasma Levels (μM) 3 hr [2]: 0.005 µM
10.6 | 0.025 | Cc1cccc(Cc2nnc(C(=O)[C@@H](NC(=O)CN3C(=O)CN(CCN4CCOCC4)C(=O)[C@H]3Cc3ccccc3)C(C)C)o2)c1 [CE2162, 4-[1-(2-N-Morpholino)ethyl-3-(R)-benzylpiperazine-2,5-dione]-N-[1-(2-[5-(3-methylbenzyl)-1,3,4-oxadiazolyl]carbonyl)-2-(S)-methylpropyl]acetamide] | –
17 | 0.034 | Cc1cccc(Cc2nnc(C(=O)[C@@H](NC(=O)CN(Cc3ccccc3)C(=O)c3ccc[nH]3)C(C)C)o2)c1 [CE2164, (Pyrrole-2-carbonyl)-N-(benzyl)glycyl-N-[1-(2-[5-(3-methylbenzyl)-1,3,4-oxadiazolyl]carbonyl)-2-(S)-methylpropyl]amide] | –
2.6 | 0.067 | CC(=O)N1c2ccccc2C[C@H]1C(=O)N[C@H](C(=O)c1nnc(Cc2cccc(C)c2)o1)C(C)C [CE2165, N-Acetyl-2-(L)-(2,3-dihydro-1H-indole)-N-[1-(2-[5-(3-methylbenzyl) 1,3,4-oxadiazolyl]carbonyl)-2-(S)-methylpropyl]amide] | –
2.2 | 0.021 | CC(C)[C@H](NC(=O)[C@@H]1CCCN1C(=O)[C@@H](NS(C)(=O)=O)C(C)C)C(=O)c1noc(Cc2cccc(C(F)(F)F)c2)n1 [CE2172, Methylsulfonyl-L-valyl-N-[1-(3-[5-(3-trifluoromethylbenzyl)-1,2,4-oxadiazolyl]carbonyl)-2-(S)-methylpropyl]-L-prolinamide] | –
79 | – | CC(C)[C@H](NC(=O)CN1C(=O)NC(=Cc2cccnc2)C1=O)C(=O)c1noc(Cc2cccc(C(F)(F)F)c2)n1 [CE2203, [4-(R)-(3-pyridylmethylene)]-2,5-imidazolidinedione-N-[1-(3-[5-(3-trifluoromethylbenzyl)-1,2,4-oxadiazolyl]carbonyl)-2-(S)-methylpropyl]acetamide] | Plasma Levels (μM) 3 hr [2]: 0.004 µM
7.4 | 0.48 | Cc1cccc(Cc2nnc(C(=O)[C@@H](NC(=O)CN3C[C@@H](c4ccccc4)N(C(=O)OCc4ccccc4)CC3=O)C(C)C)o2)c1 [CE2204, 1-Benzyloxycarbonyl-(2-(R)-phenylpiperazin-5-one)-N-[-(2-[5-(3-methylbenzyl)-1,3,4-oxadiazolyl]carbonyl)-2-(S)-methylpropyl]acetamide] | –
37 | – | CCc1cccc(Cc2nnc(C(=O)[C@@H](NC(=O)CN3C(=O)NC(=Cc4cccnc4)C3=O)C(C)C)o2)c1 [CE2205, [4-(R)-(3-pyridylmethylene)]-2,5-imidazolidinedione-N-[1-(2-[5-(3-ethylbenzyl)-1,3,4-oxadiazolyl]carbonyl)-2-(S)-methylpropyl]acetamide] | Plasma Levels (μM) 3 hr [2]: 0.475 µM
36.4 | – | CC(C)[C@H](NC(=O)CN1C(=O)NC(c2ccncc2)(N2C(=O)CCC2=O)C1=O)C(=O)c1noc(Cc2cccc(C(F)(F)F)c2)n1 (stereo partly drawn) [CE2209, [4-(R,S)-(4-pyridyl)-4-(R,S)-N-succinimidyl]-2,5-imidazolidinedione-N-[1-(3-[5-(3-trifluoromethylbenzyl)-1,2,4-oxadiazolyl]carbonyl)-2-(S)-methylpropyl]acetamide] | Plasma Levels (μM) 3 hr [2]: 0 µM
0.14 | 0.19 | COC(=O)N[C@H](C(=O)N1CCC[C@H]1C(=O)N[C@H](C(=O)c1nnc(Cc2cccc(C)c2)o1)C(C)C)C(C)C [CE2213, Methyloxycarbonyl-L-valyl-N-[1-(2-[5-(3-methylbenzyl)-1,3,4-oxadiazolyl]carbonyl)-2-(S)-methylpropyl]-L-prolinamide] | –
34 | – | Cc1cccc(Cc2nc(C(=O)C(NC(=O)CN3C(=O)C(N)N=C(c4ccccc4)c4ccccc43)C(C)C)no2)c1 [CE2221, (R,S)-3-Amino-2-oxo-5-phenyl-1,4-benzodiazepine-N-[1-(3-[5-(3-methylbenzyl)-1,2,4-oxadiazolyl]carbonyl)-2-(R,S)-methylpropyl]acetamide] | –
0.36 | – | CC(C)[C@H](NC(=O)Cn1c(-c2ccc(F)cc2)ccc(N)c1=O)C(=O)c1nnc(Cc2ccc3c(c2)OCO3)o1 [CE2261] | –
0.42 | – | Cc1cccc(Cc2nnc(C(=O)[C@@H](NC(=O)Cn3c(-c4cccs4)ncc(N)c3=O)C(C)C)o2)c1 [CE2262, 2-[5-Amino-6-oxo-2-thiophenyl-1,6-dihydro-1-pyrimidinyl]-N-[1-(2-[5-(3-methylbenzyl)-1,3,4-oxadiazolyl]carbonyl)-2-(S)-methylpropyl]acetamide] | –
0.67 | – | Cc1cccc(Cc2nnc(C(=O)[C@@H](NC(=O)Cn3c(-c4cccnc4)ncc(N)c3=O)C(C)C)o2)c1 [CE2263, 2-[5-Amino-6-oxo-2-(3-pyridyl)-1,6-dihydro-1-pyrimidinyl]-N-[1-(2-[5-(3-methylbenzyl)-1,3,4-oxadiazolyl]carbonyl)-2-(S)-methylpropyl]acetamide] | –
0.033 | – | (Benzyloxycarbonyl)-L-valyl-N-[1-(2-[5-(1-napthylenyl)-1,3,4-xadiazolyl]carbonyl)-2-(S)-methylpropyl]-L-prolinamide [CE2124] | –
348 | – | (R,S)-3-Amino-2-oxo-5-phenyl-1,4-(6-2′-chlorobenzodiazepine)-N-[1-(2-[5-phenyl-1,3,4-oxadiazolyl]carbonyl)-2-(R,S)-propyl]acetamide [CE2211] | –

Compound | Ki [1] [nM] | concentration at 3 h [2] [µM] | other results
CC(C)OC(=O)N[C@H](C(=O)N1CCC[C@H]1C(=O)N[C@H](C(=O)c1noc(Cc2cccc(C(F)(F)F)c2)n1)C(C)C)C(C)C [CE2207, Isopropytoxycarbonyl-L-valyl-N-[1-(3-[5-(3-trifluoromethylbenzyl)-1,2,4-oxadiazolyl]carbonyl)-2-(S)-methylpropyl]-L-prolinamide] | 1.2 | 0 | –
